Measured values taken from patent US10174293B1, “Recombinant PB1 bacteriophages and uses thereof” (Charles Stark Draper Laboratory, Inc., priority 2018, dated 2019).

System: drug sensitive strain
Assay: Antibiotic susceptibility profiling with recombinant PB1 phages, drug sensitive strain
Type: cell-based, Pseudomonas aeruginosa
Source text: In some embodiments of the method, the differences in the reporter gene expression of the recombinant PB1 bacteriophage observed in the antibiotic treated sub-sample and the untreated control sub-sample is defined as μ.

## gentamicin
Versus 'no drug' sample (FIG. 4B)
  luciferase activity of antibiotic treated sample: decline in luciferase activity
μ = difference in reporter expression, treated vs untreated (FIG. 4B)
  μ value over time: steady increase in μ value over time
